In patent US9211310B2, “Use of a Chinese medicine composition in preparing medicaments for treating secondary prevention of myocardial infarction” (TASLY PHARMACEUTICAL GROUP CO., LTD, priority 2010, dated 2015):

System: patients after acute myocardial infarction
Assay: Life quality, Seattle Angina Questionnaire (SAQ), same clinical trial
Assay type: in vivo, human
Description: 3508 patients who were in accordance with the diagnostic standards of AMI for 28 days to 2 years and differentiated as Qi deficiency and blood stagnation syndrome by TCM were studied. 0.5 g Chinese medicine composition prepared by the method of EXAMPLE 1 (Coded as QSYQ) was administrated half an hour after meal, 3 times per day.
There were 19 questions in the Seattle angina questionnaire (SAQ), including 5 parts: physical limitation (PL), anginal stability (AS), anginal frequency (AF), treatment satisfaction (TS) and disease perception (DP). After being given necessary explanation by doctors, the questions were answered independently by patients.
They included the overall survival time, angina pectoris score, TCM symptom score and life quality score, where angina pectoris score, TCM symptom score and life quality score were evaluated at randomization, in 1st, 3rd, 6th, 9th, 12th month after treatment and 18th month after follow-up.
All evaluation results of SAQ were described during the period of observation, and Wilcoxon rank sum test was used for inter-group comparison.
The evaluation results in the SAQ were depicted in different observations, and inter-group comparison was tested by Wilcoxon Rank-sum test.

With `CC(=O)Oc1ccccc1C(=O)O` [Control group, aspirine] the “SAQ 2nd question: Slightly increased, cases” value (1 month after treatment, PP) was 43, the “SAQ 2nd question: Slightly reduced, % of cases” value (1 month after treatment, PP) was “(30.18%)” and the “SAQ 2nd question: Slightly reduced, cases” value (1 month after treatment, PP) was 447. For the same compound, the “SAQ 3rd question: 1-2 times per week, % of cases” value (1 month after treatment, PP) was “(30.18%)”, the “SAQ 3rd question: 1-2 times per week, cases” value (1 month after treatment, PP) was 447 and the “SAQ 3rd question: 1-3 times per day, % of cases” value (1 month after treatment, PP) was “(2.90%)”. For the same compound, the “SAQ 3rd question: 1-3 times per day, cases” value (1 month after treatment, PP) was 43, the “SAQ 3rd question: <1 time per week, % of cases” value (1 month after treatment, PP) was “(16.75%)” and the “SAQ 3rd question: <1 time per week, cases” value (1 month after treatment, PP) was 248. The “SAQ 3rd question: No onset, % of cases” value (1 month after treatment, PP) was “(0.00%)”, the “SAQ 3rd question: No onset, cases” value (1 month after treatment, PP) was 0 and the “SAQ 3rd question: ≧3 times per week, % of cases” value (1 month after treatment, PP) was “(49.63%)”. The “SAQ 3rd question: ≧3 times per week, cases” value (1 month after treatment, PP) was 735, the “SAQ 3rd question: ≧4 times per day, % of cases” value (1 month after treatment, PP) was “(0.54%)” and the “SAQ 3rd question: ≧4 times per day, cases” value (1 month after treatment, PP) was 8. The “SAQ Question 1-3: Mildly limited, number of patients” value (1 month after treatment, PP) was 114, the “SAQ Question 1-3: Mildly limited, percent of patients” value (1 month after treatment, PP) was “(7.67%)” and the “SAQ Question 1-3: Moderately limited, number of patients” value (1 month after treatment, PP) was 25. The “SAQ Question 1-3: Moderately limited, percent of patients” value (1 month after treatment, PP) was “(1.68%)”, the “SAQ Question 1-3: Not limited, number of patients” value (1 month after treatment, PP) was 1064 and the “SAQ Question 1-3: Not limited, percent of patients” value (1 month after treatment, PP) was “(71.60%)”. The “SAQ Question 1-3: Other reasons, number of patients” value (1 month after treatment, PP) was 7, the “SAQ Question 1-3: Other reasons, percent of patients” value (1 month after treatment, PP) was “(0.47%)” and the “SAQ Question 1-3: Severely limited, number of patients” value (1 month after treatment, PP) was 5. The “SAQ Question 1-3: Severely limited, percent of patients” value (1 month after treatment, PP) was “(0.34%)”, the “SAQ Question 1-3: Slightly limited, number of patients” value (1 month after treatment, PP) was 271 and the “SAQ Question 1-3: Slightly limited, percent of patients” value (1 month after treatment, PP) was “(18.24%)”. For the same compound, the “SAQ Question 1-4: Mildly limited, number of patients” value (1 month after treatment, PP) was 303, the “SAQ Question 1-4: Mildly limited, percent of patients” value (1 month after treatment, PP) was “(20.43%)” and the “SAQ Question 1-4: Moderately limited, number of patients” value (1 month after treatment, PP) was 138. For the same compound, the “SAQ Question 1-4: Moderately limited, percent of patients” value (1 month after treatment, PP) was “(9.31%)”, the “SAQ Question 1-4: Not limited, number of patients” value (1 month after treatment, PP) was 521 and the “SAQ Question 1-4: Not limited, percent of patients” value (1 month after treatment, PP) was “(35.13%)”. The “SAQ Question 1-4: Other reasons, number of patients” value (1 month after treatment, PP) was 11, the “SAQ Question 1-4: Other reasons, percent of patients” value (1 month after treatment, PP) was “(0.74%)” and the “SAQ Question 1-4: Severely limited, number of patients” value (1 month after treatment, PP) was 27. The “SAQ Question 1-4: Severely limited, percent of patients” value (1 month after treatment, PP) was “(1.82%)”, the “SAQ Question 1-4: Slightly limited, number of patients” value (1 month after treatment, PP) was 483 and the “SAQ Question 1-4: Slightly limited, percent of patients” value (1 month after treatment, PP) was “(32.57%)”. For the same compound, the “SAQ Question 1-5: Mildly limited, number of patients” value (1 month after treatment, PP) was 278, the “SAQ Question 1-5: Mildly limited, percent of patients” value (1 month after treatment, PP) was “(18.76%)” and the “SAQ Question 1-5: Moderately limited, number of patients” value (1 month after treatment, PP) was 166. For the same compound, the “SAQ Question 1-5: Moderately limited, percent of patients” value (1 month after treatment, PP) was “(11.20%)”, the “SAQ Question 1-5: Not limited, number of patients” value (1 month after treatment, PP) was 546 and the “SAQ Question 1-5: Not limited, percent of patients” value (1 month after treatment, PP) was “(36.84%)”. The “SAQ Question 1-5: Other reasons, number of patients” value (1 month after treatment, PP) was 9, the “SAQ Question 1-5: Other reasons, percent of patients” value (1 month after treatment, PP) was “(0.61%)” and the “SAQ Question 1-5: Severely limited, number of patients” value (1 month after treatment, PP) was 24. The “SAQ Question 1-5: Severely limited, percent of patients” value (1 month after treatment, PP) was “(1.62%)”, the “SAQ Question 1-5: Slightly limited, number of patients” value (1 month after treatment, PP) was 459 and the “SAQ Question 1-5: Slightly limited, percent of patients” value (1 month after treatment, PP) was “(30.97%)”. The “SAQ Question 1-9: Mildly limited, % of cases” value (1 month after treatment, PP) was “(16.54%)”, the “SAQ Question 1-9: Mildly limited, cases” value (1 month after treatment, PP) was 239 and the “SAQ Question 1-9: Moderately limited, % of cases” value (1 month after treatment, PP) was “(21.45%)”. The “SAQ Question 1-9: Moderately limited, cases” value (1 month after treatment, PP) was 310, the “SAQ Question 1-9: Not limited, % of cases” value (1 month after treatment, PP) was “(2.98%)” and the “SAQ Question 1-9: Not limited, cases” value (1 month after treatment, PP) was 43. The “SAQ Question 1-9: Other reasons, % of cases” value (1 month after treatment, PP) was “(6.44%)”, the “SAQ Question 1-9: Other reasons, cases” value (1 month after treatment, PP) was 93 and the “SAQ Question 1-9: Severely limited, % of cases” value (1 month after treatment, PP) was “(42.70%)”. The “SAQ Question 1-9: Severely limited, cases” value (1 month after treatment, PP) was 617, the “SAQ Question 1-9: Slightly limited, % of cases” value (1 month after treatment, PP) was “(9.90%)” and the “SAQ Question 1-9: Slightly limited, cases” value (1 month after treatment, PP) was 143. The “SAQ 2nd question: Clearly increased, % of cases” value (3 months after treatment, FAS) was “(0.92%)”, the “SAQ 2nd question: Clearly increased, cases” value (3 months after treatment, FAS) was 16 and the “SAQ 2nd question: Clearly reduced, % of cases” value (3 months after treatment, FAS) was “(21.15%)”. For the same compound, the “SAQ 2nd question: Clearly reduced, cases” value (3 months after treatment, FAS) was 368, the “SAQ 2nd question: Same, % of cases” value (3 months after treatment, FAS) was “(42.13%)” and the “SAQ 2nd question: Same, cases” value (3 months after treatment, FAS) was 733. The “SAQ 2nd question: Slightly increased, % of cases” value (3 months after treatment, FAS) was “(3.79%)”, the “SAQ 2nd question: Slightly increased, cases” value (3 months after treatment, FAS) was 66 and the “SAQ 2nd question: Slightly reduced, % of cases” value (3 months after treatment, FAS) was “(32.01%)”. For the same compound, the “SAQ 2nd question: Slightly reduced, cases” value (3 months after treatment, FAS) was 557, the “SAQ 3rd question: 1-2 times per week, % of cases” value (3 months after treatment, FAS) was “(32.01%)” and the “SAQ 3rd question: 1-2 times per week, cases” value (3 months after treatment, FAS) was 557. For the same compound, the “SAQ 3rd question: 1-3 times per day, % of cases” value (3 months after treatment, FAS) was “(3.79%)” and the “SAQ 3rd question: 1-3 times per day, cases” value (3 months after treatment, FAS) was 66.
